Values of other authors in patent US11185067B2, “Attractants for rats” (priority 2015, dated 2021).

Test system: rats
Settings: odor-painted glass rods inserted into cage; Zhang et al. 2008, 2011

Row | SMILES | effects on rat behavior
1 | CCCCCCCC(C)=O [2-nonanone] | inducing sniffing or licking
2 | CCCCCC(C)=O [2-heptanone] | inducing sniffing or licking
3 | CCCC(=O)CCC [4-heptanone] | inducing sniffing or licking
